Entries after “also recorded” stand apart in the source; their conditions may differ. Structures can show the parent of a compound that is named as a salt. Where two headings read alike, the source gives them in different places.
Tests used:
[1] = test system: infant gut microbiota; test: TIM-2 in vitro proximal colon model inoculated with infant feces; design: species or system human; conditions: high dose LNnT (1000 mg/L) with infant formula
Experimental: Preliminary Data on Effect of HMOs on infant microbiome: These in vitro studies were performed with TIM-2 107-121 inoculated with feces from 3-month old breast-fed infants (pooled microbiota of 5 infants).
Effect of HMO lacto-N-neotetraose (LNnT) on microbiome metabolic activity: We studied the effect of the most abundant HMOs LNnT (200 and 1000 mg/L) on the metabolic activity of the gut microbiota in TIM-2 when exposed to infant formula.
TIM-2 in vitro Colon Model: TIM-2 simulates the colon and consists of four interconnected compartments containing flexible membranes in which peristaltic movements are mimicked. Conditions of healthy human infants are simulated including: body temperature, lumen pH, composition and rate of secretion fluids, delivery of a predigested substrate from the ‘ileum’, mixing and transport of intestinal contents by peristalsis, absorption of water and microbial metabolites through a dialysis system, and presence of a complex, high density, metabolically active and anaerobic microbiota of healthy human infants. The dialysis system prevents accumulation of microbial metabolites, which would otherwise inhibit or kill gut microbiota. The model will be inoculated with a pooled microbiota of healthy human infants (˜2 months) using feces collected (diaper samples) from 10 volunteers and pooled in an anaerobic cabinet to allow for a standardized microbiota. […]

[2] = test system: mammary epithelial cells (MECs); test: 3-D mouse mammary epithelial cell (MEC) primary culture: milk and lipid synthesis and secretion; type: cell-based; conditions: for palmitate-induced MEC "milk" triglyceride concentration: orlistat 100 μmol/L together with palmitate 100 μmol/L; for palmitate-induced MEC "milk" triglyceride concentration / MEC "milk" β-casein protein expression / MEC "milk" triglyceride secretion / concentration: 48 h; for MEC "milk" β-casein protein expression: palmitate 50, 100 μmol/L; for MEC "milk" β-casein protein expression / MEC "milk" triglyceride secretion / concentration: (sodium salt); for MEC "milk" triglyceride secretion / concentration: palmitate 50, 100 μmol/L in basolateral chamber, vs untreated MECs
Experimental: The growth medium consisted of RPMI-1640 supplemented with 10% FBS, 10 μg/mL of insulin, 10 ng/ml of EGF, 100 U/mL of penicillin, and 100 μg/mL of streptomycin. The lactogenic medium consisted of growth medium plus 0.5 U/mL of prolactin and 1 μM dexamethasone. The palmitate-albumin conjugate stock solution contained a palmitate solution (2 mM/L in 50% ethanol) and FA-free BSA (2%) and was diluted in lactation medium to provide 50 and 100 μmol/L palmitate concentrations. Orlistat was dissolved in ethanol.
3-D Cell Culture Model: This example recreated the milk production pathway in mammary epithelial cell (MEC) primary cultures. The method uses cell culture inserts to maintain the cell polarity of MECs, which secrete milk components into the apical (upper) compartment from nutrient sources in the basolateral (lower) compartment (FIG. 1). Briefly, the mice (N=6) were euthanized, and the 4th abdominal mammary glands from both sides were collected in PBS buffer for the isolation of MECs. The mammary glands were minced and incubated in RPMI-1640 medium containing collagenase III (1.5 mg/mL) for 2 h at 37° C. with gentle shaking, followed by centrifugation (600×g for 1 min). The pellet was re-suspended in RPMI-1640 with 0.2% trypsin for 5 min at room temperature. The fragments of the mammary epithelium were dissociated by gentle pipetting with a Pasteur pipette and centrifuged (600×g for 1 min), and the pellet was re-suspended in 60% FBS (fetal bovine serum) followed by centrifugation (10×g for 1 min). The trypsin treatment and centrifugation with FBS were repeated for the isolation of mammary epithelial fragments without contaminating cells, such as fibroblasts, adipocytes, and myoepithelial cells. The epithelial fragments (0.1 mg) were subsequently seeded in 24-well cell culture plates with inserts to separate the basolateral chamber containing the lactogenic medium (nutrients) and the apical chamber containing the secreted MEC “milk”. The cells were cultured for 6 days at 37° C. in growth medium placed in the basolateral chamber. To induce lactogenesis, MECs were cultured in lactogenic medium placed in the basolateral and apical chambers for 2 days at 37° C. To induce a high milk production ability, MECs were cultured at 39° C. with the lactogenic medium in the basolateral chamber and with RMPI-1640 in the apical chamber (FIG. 1).
Treatments: Palmitate (50, 100 μmol/L) or the lipase inhibitor orlistat (100 μmol/L) together with palmitate (100 μmol/L) were added to the lactogenic medium within the basolateral chamber, and RPMI-1640 was maintained in the apical chamber. After 48 h, MECs and apical medium were collected separately for analysis, as described below.
Sample Analysis: Henceforth, we refer to cellular MECs as “MECs” and to apical medium as MEC “milk”. MECs were fixed for immunostaining or stored at −80° C. for protein and mRNA expression studies. MEC “milk” was frozen at −80° C. and analyzed for triglyceride concentration and protein and mRNA expression.
Western Blot: The cells were harvested and dissolved in RIPA solution with a protease inhibitor cocktail and sonicated, and the cell lysates were processed for the analysis of protein concentration by the […] Protein Assay Kit. For the detection of pSTAT5, the protein phosphatase inhibitor NaF (50 mM) was added to all buffers. MEC protein expression of β-casein (25 kDa), FAS (270 KDa), SREBP1 (68 KDa), and pSTAT5 (92 KDa) was analyzed.
MEC “milk” was similarly analyzed for protein expression of β-casein.
RT-PCR: The mRNA abundance of the target genes (lipoprotein lipase, LPL; FAS) and the reference gene (18S) in MEC and MEC “milk” was determined by RT-PCR. Briefly, RNA was extracted following the manufacturer's instructions, using the RNeasy Mini Kit (Qiagen, Valencia, CA, USA). Briefly, a guanidine-thiocyanate-containing lysis buffer and ethanol were added to the samples to promote the selective binding of RNA to the RNeasy membrane. […]

[3] = humans; cited from earlier work
[4] = test system: in vitro cultures; test: Cell viability of in vitro cultures with orlistat; type: cell-based; conditions: orlistat 250 μM, orlistat-to-palmitate ratio 1:1
[5] = test system: mammary epithelial cells (MECs); test: Cell permeability: FITC and FITC-dextran flux from basolateral to apical compartment; type: cell-based, mouse
Experimental: Cell Permeability: To assess whether mammary epithelial permeability was altered by the treatments, we measured the unidirectional flux of fluorescein isothiocyanate (FITC, molecular weight 376) and FITC-labeled dextran 3000 (FITC-dex) from the basolateral to the apical compartments. MECs were prepared as stated above and treated with palmitate and orlistat as described above. After 2 days, FITC and FITC-dex (0.5 mg/mL) were added to the basolateral chamber, and the cells were incubated for 1 h. Thereafter, the basolateral and apical media were aspirated separately, and fluorescence intensity was measured at 490/520 nm excitation/emission maxima. The permeability of the cells is expressed as percent of flux into the apical chamber/total FITC administered into the basolateral chamber.

In the case of `CC(=O)N[C@H]1[C@H](O[C@H]2[C@@H](O)[C@@H](CO)O[C@@H](O[C@H]3[C@H](O)[C@@H](O)C(O)O[C@@H]3CO)[C@@H]2O)O[C@H](CO)[C@@H](O[C@@H]2O[C@H](CO)[C@H](O)[C@H](O)[C@H]2O)[C@@H]1O` (mixture of isomers) [LNnT, lacto-N-neotetraose], the “L-lactate production by gut microbiota” value [1] is reported as “increased”.
In the case of `CCCCCCCCCCC[C@@H](C[C@@H]1OC(=O)[C@H]1CCCCCC)OC(=O)[C@H](CC(C)C)NC=O` [orlistat], the “palmitate-induced MEC "milk" triglyceride concentration” value [2] is given as “reversed; also recorded: suppressed”, the “palmitate-induced MEC "milk" triglyceride concentration” value ([2]; listed as Orlistat) is given as “normalized” and the systemic absorption [3] is given as “minimal”. For the same compound, the cell viability [4] was “demonstrated cell viability” and the “FITC fluorescence measured in the apical chamber, treated vs non-treated” value ([5]; after 48 h treatment, 1 h incubation with FITC) was “comparable”.
In the case of `CCCCCCCCCCCCCCCC(=O)O` [palmitate, palmitate (sodium salt)], the “MEC "milk" β-casein protein expression” value ([2]; apical medium) is reported as “dose-dependent increase”, the “MEC "milk" β-casein protein expression” value ([2]; apical medium, listed as palmitic) is reported as “increases” and the “MEC "milk" mRNA expression of Fas” value ([2]; apical medium, palmitate 48 h) is reported as “increased”. For the same compound, the “MEC "milk" mRNA expression of Lpl” value ([2]; apical medium, palmitate 48 h) was “increased”, the “MEC mRNA expression of Fas” value ([2]; cellular MECs, palmitate 48 h) was “increased” and the “MEC mRNA expression of Lpl” value ([2]; cellular MECs, palmitate 48 h) was “increased”. The “MEC protein expression of FAS” value ([2]; cellular MECs, palmitate 48 h) was “increased”, the “MEC protein expression of SREBP1” value ([2]; cellular MECs, palmitate 48 h) was “increased” and the “MEC protein expression of pSTAT5” value ([2]; cellular MECs, palmitate 48 h) was “increased”. The “MEC protein expression of β-casein” value ([2]; cellular MECs, palmitate 48 h) was “increased”, the “MEC "milk" triglyceride secretion / concentration” value [2] was “dose-dependent increase” and the “MEC "milk" triglyceride secretion / concentration” value ([2]; listed as Na-palmitate) was “doubled”. For the same compound, the “MEC "milk" triglyceride secretion / concentration” value ([2]; listed as palmitic) was “increases” and the “FITC fluorescence measured in the apical chamber, treated vs non-treated” value [5] was “comparable”.

— patent publication US20250235415A1, “MODULATION OF HUMAN BREAST MILK COMPOSITION” (LUNDQUIST INSTITUTE FOR BIOMEDICAL INNOVATION AT …, priority 2022, published 2025)
